In patent US7384959B2, “Treatment of convulsive states” (priority 1999, dated 2008):
Marks after values point to notes of the source that are not given here.

Legend:
rat [1] = experiment: barbital interaction (sleep induction) test; type: in vivo; conditions: for NUMBER OF RATS SLEEPING: 10 rats per group; for SLEEP DURATION mean ± s.e.m.: maximum 6 hours after barbital injection
Source text: (§1) The following Tables report the results of the Irwin, PTZ and barbital interaction (sleep induction) tests. Description of these tests may be found in Psychopharmacologica, 13:222-257 (1968), Krall et al, Epilepsia 19:409-428 (1978), and Simon et al, J. Pharmacol, Paris 13:241-252 (1982). See also Roux et al, Phoenix international Pharmacology Reports Nos. D30.2061/2 and D99.021/2.
In Table 3, the following apply: Student's t Test: NS=Not Significant; *=p<0.05; **=p<0.01; ***=<0.001 Fisher's Exact Test: (number of rats sleeping) No indication=Not Significant; +=p<0.05; ++=p<0.01; +++=p<0.001 • (#): maximum=6 hours after barbital injection (taken 50 minutes after barbital injection).

patients with epilepsy = conditions: ABPI Compendium 1999-2000; cited from earlier work
[2] = intravenous administration; Srinivas 1993; cited from earlier work
rat [3] = experiment: Pentylenetetrazole (PTZ) Seizure Test; type: in vivo; conditions: for NUMBER OF CLONIC CONVULSIONS number of rats / NUMBER OF DEATHS number of rats / NUMBER OF TONIC CONVULSIONS number of rats: 10 rats per group; for NUMBER OF CLONIC CONVULSIONS number of rats / NUMBER OF DEATHS number of rats / NUMBER OF TONIC CONVULSIONS number of rats / NUMBER OF CLONIC CONVULSIONS % antagonism / NUMBER OF DEATHS % antagonism / NUMBER OF TONIC CONVULSIONS % antagonism: observed during 60 minutes
Source text: as §1
Table 2a reports mean results based on animals showing the symptoms (minimum=3 animals). Table 2b reports results observed during 60 minutes. In these Tables: Student's t Test: NS=Not Significant; *=p<0.05; ** p<0.01; ***=p<0.001 Fisher's Exact Test: No indication=Not Significant; **=p<0.01; ***=p<0.001

[4] = test system: attention-deficit hyperactivity disorder (ADHD); conditions: Patrick et al 1987; cited from earlier work

COC(=O)C(c1ccccc1)C1CCCCN1 (racemic) [d,l-MPH, d,l-threo-methylphenidate]
SLEEP DURATION % change from control (rat [1]; 0.25 mg/kg s.c. −30 min): +51%
NUMBER OF RATS SLEEPING (rat [1]; 0.25 mg/kg s.c. −30 min): 9
SLEEP DURATION mean ± s.e.m. (rat [1]; 0.25 mg/kg s.c. −30 min): 94.2 ± 18.3 NS min
SLEEP DURATION % change from control (rat [1]; 0.5 mg/kg s.c. −30 min): −19%
NUMBER OF RATS SLEEPING (rat [1]; 0.5 mg/kg s.c. −30 min): 8
SLEEP DURATION mean ± s.e.m. (rat [1]; 0.5 mg/kg s.c. −30 min): 50.2 ± 16.2 NS min
SLEEP DURATION % change from control (rat [1]; 1 mg/kg s.c. −30 min): −100%
NUMBER OF RATS SLEEPING (rat [1]; 1 mg/kg s.c. −30 min): 0 +++
SLEEP DURATION mean ± s.e.m. (rat [1]; 1 mg/kg s.c. −30 min): 0.0 ± 0.0*** min
SLEEP DURATION % change from control (rat [1]; 2 mg/kg s.c. −30 min): −70%
NUMBER OF RATS SLEEPING (rat [1]; 2 mg/kg s.c. −30 min): 4 +
SLEEP DURATION mean ± s.e.m. (rat [1]; 2 mg/kg s.c. −30 min): 19.0 ± 12.6 min
SLEEP DURATION % change from control (rat [1]; 4 mg/kg s.c. −30 min): −100%
NUMBER OF RATS SLEEPING (rat [1]; 4 mg/kg s.c. −30 min): 0 +++
SLEEP DURATION mean ± s.e.m. (rat [1]; 4 mg/kg s.c. −30 min): 0.0 ± 0.0*** min
effect on seizure frequency (patients with epilepsy): can cause an increase in seizure frequency in a small number of such patients
time after dosing with similar plasma levels of the two enantiomers [2]: around 1.5 hours

Cn1c(=O)c2c(ncn2C)n(C)c1=O [Caffeine]
SLEEP DURATION % change from control (rat [1]; 16 mg/kg s.c. −30 min): −99%
NUMBER OF RATS SLEEPING (rat [1]; 16 mg/kg s.c. −30 min): 1 +++
SLEEP DURATION mean ± s.e.m. (rat [1]; 16 mg/kg s.c. −30 min): 0.5 ± 0.5*** min

CN1C(=O)CN=C(c2ccccc2)c2cc(Cl)ccc21 [DIAZEPAM, diazepam, reference compound]
NUMBER OF CLONIC CONVULSIONS number of rats (rat [3]; 4 mg/kg s.c. −30 min): 0+++
NUMBER OF DEATHS number of rats (rat [3]; 4 mg/kg s.c. −30 min): 0+++
NUMBER OF TONIC CONVULSIONS number of rats (rat [3]; 4 mg/kg s.c. −30 min): 0+++
NUMBER OF CLONIC CONVULSIONS % antagonism (rat [3]; 4 mg/kg s.c. −30 min): 100%
NUMBER OF DEATHS % antagonism (rat [3]; 4 mg/kg s.c. −30 min): 100%
NUMBER OF TONIC CONVULSIONS % antagonism (rat [3]; 4 mg/kg s.c. −30 min): 100%

CCOC(=O)c1ncn2c1CN(C)C(=O)c1cc(N=[N+]=[N-])ccc1-2 [RO 15-4513, reference compound]
NUMBER OF CLONIC CONVULSIONS number of rats (rat [3]; 2 mg/kg s.c. −30 min): 10
NUMBER OF DEATHS number of rats (rat [3]; 2 mg/kg s.c. −30 min): 10
NUMBER OF TONIC CONVULSIONS number of rats (rat [3]; 2 mg/kg s.c. −30 min): 10
NUMBER OF CLONIC CONVULSIONS % antagonism (rat [3]; 2 mg/kg s.c. −30 min): 0%
NUMBER OF DEATHS % antagonism (rat [3]; 2 mg/kg s.c. −30 min): 0%
NUMBER OF TONIC CONVULSIONS % antagonism (rat [3]; 2 mg/kg s.c. −30 min): 0%
LATENCY TO CLONIC CONVULSIONS % change from control (rat [3]; 2 mg/kg s.c. −30 min, rat): −37%
LATENCY TO CLONIC CONVULSIONS mean ± s.e.m. (rat [3]; 2 mg/kg s.c. −30 min, rat): 345.0 ± 59.4* sec
LATENCY TO DEATHS % change from control (rat [3]; 2 mg/kg s.c. −30 min, rat): −36%
LATENCY TO DEATHS mean ± sem. (rat [3]; 2 mg/kg s.c. −30 min, rat): 837.0 ± 116.7** sec
LATENCY TO TONIC CONVULSIONS % change from control (rat [3]; 2 mg/kg s.c. −30 min, rat): −42%
LATENCY TO TONIC CONVULSIONS mean ± sem. (rat [3]; 2 mg/kg s.c. −30 min, rat): 681.0 ± 102.6** sec

COC(=O)[C@H](c1ccccc1)[C@H]1CCCCN1 [d-MPH, d-threo-Methylphenidate]
SLEEP DURATION % change from control (rat [1]; 0.25 mg/kg s.c. −30 min): −83%
NUMBER OF RATS SLEEPING (rat [1]; 0.25 mg/kg s.c. −30 min): 6
SLEEP DURATION mean ± s.e.m. (rat [1]; 0.25 mg/kg s.c. −30 min): 10.5 ± 5.3** min
SLEEP DURATION % change from control (rat [1]; 0.5 mg/kg s.c. −30 min): −65%
NUMBER OF RATS SLEEPING (rat [1]; 0.5 mg/kg s.c. −30 min): 8
SLEEP DURATION mean ± s.e.m. (rat [1]; 0.5 mg/kg s.c. −30 min): 21.6 ± 13.5* min
SLEEP DURATION % change from control (rat [1]; 1 mg/kg s.c. −30 min): −97%
NUMBER OF RATS SLEEPING (rat [1]; 1 mg/kg s.c. −30 min): 3 ++
SLEEP DURATION mean ± s.e.m. (rat [1]; 1 mg/kg s.c. −30 min): 2.1 ± 1.5*** min
SLEEP DURATION % change from control (rat [1]; 2 mg/kg s.c. −30 min): −100%
NUMBER OF RATS SLEEPING (rat [1]; 2 mg/kg s.c. −30 min): 0 ++
SLEEP DURATION mean ± s.e.m. (rat [1]; 2 mg/kg s.c. −30 min): 0.0 ± 0.0*** min
pharmacological action in the treatment of ADHD [4]: is the property of the d-enantiomer
